Results reported in PMC5748644, “Synthesis and In Vitro Cytotoxicity of the 4-(Halogenoanilino)-6-bromoquinazolines and Their 6-(4-Fluorophenyl) Substituted Derivatives as Potential Inhibitors of Epidermal Growth Factor Receptor Tyrosine Kinase” (Pharmaceuticals, 2017).

What follows are compounds tested against T1, epidermal growth factor receptor tyrosine kinase (EGFR-TK) (Homo sapiens, UniProt P00533) (assay: ELISA kinase assay, poly(Glu,Tyr) phosphorylation, anti-phosphotyrosine antibody, […] nm).
T1 construct: commercial purified EGFR (Sigma-Aldrich), called both purified Epidermal Growth Factor Receptor and purified recombinant EGFR tyrosine kinase
Format: biochemical

T1 sequence (P00533 25-1210): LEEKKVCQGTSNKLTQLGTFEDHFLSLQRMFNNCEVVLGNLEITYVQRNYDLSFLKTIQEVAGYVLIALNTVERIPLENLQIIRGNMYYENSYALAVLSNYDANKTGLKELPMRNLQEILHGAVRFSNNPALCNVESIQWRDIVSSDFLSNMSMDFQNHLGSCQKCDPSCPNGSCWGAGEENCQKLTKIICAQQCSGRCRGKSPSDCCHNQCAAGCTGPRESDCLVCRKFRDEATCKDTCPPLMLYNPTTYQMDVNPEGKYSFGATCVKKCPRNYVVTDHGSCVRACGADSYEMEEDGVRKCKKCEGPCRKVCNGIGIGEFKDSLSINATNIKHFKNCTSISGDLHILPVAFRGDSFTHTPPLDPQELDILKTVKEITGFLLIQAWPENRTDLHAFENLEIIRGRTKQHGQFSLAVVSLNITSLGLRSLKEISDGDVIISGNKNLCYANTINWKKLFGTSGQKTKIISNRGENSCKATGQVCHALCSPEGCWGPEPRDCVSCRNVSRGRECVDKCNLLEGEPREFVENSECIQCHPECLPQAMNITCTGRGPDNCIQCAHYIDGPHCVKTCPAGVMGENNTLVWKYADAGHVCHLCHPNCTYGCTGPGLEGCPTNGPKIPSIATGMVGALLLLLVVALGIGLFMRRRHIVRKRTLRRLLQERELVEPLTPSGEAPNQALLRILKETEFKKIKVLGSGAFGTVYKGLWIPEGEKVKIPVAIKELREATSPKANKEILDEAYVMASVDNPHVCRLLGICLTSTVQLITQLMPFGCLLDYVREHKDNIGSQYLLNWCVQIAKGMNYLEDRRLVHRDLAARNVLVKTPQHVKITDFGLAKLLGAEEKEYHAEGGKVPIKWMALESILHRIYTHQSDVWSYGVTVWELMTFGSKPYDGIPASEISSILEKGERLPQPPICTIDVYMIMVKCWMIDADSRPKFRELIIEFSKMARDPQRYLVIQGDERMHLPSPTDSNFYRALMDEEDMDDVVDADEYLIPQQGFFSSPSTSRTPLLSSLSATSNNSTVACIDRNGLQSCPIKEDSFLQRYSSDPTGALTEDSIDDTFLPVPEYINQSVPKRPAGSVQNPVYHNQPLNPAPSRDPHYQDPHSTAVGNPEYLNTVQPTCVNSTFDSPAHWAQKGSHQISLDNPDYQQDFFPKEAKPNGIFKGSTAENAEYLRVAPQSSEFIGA

| IC50 | SMILES |
| --- | --- |
| 37.7 nM | Fc1ccc(Nc2nc(-c3ccc(Cl)cc3)nc3ccc(Br)cc23)c(F)c1 [3l, 6-Bromo-2-(4-chlorophenyl)-N-(2,4-difluorophenyl)quinazolin-4-amine] |
| 59.2 nM | Fc1ccc(-c2ccc3nc(-c4ccc(Cl)cc4)nc(Nc4ccc(F)cc4F)c3c2)cc1 [4l, [2-(4-Chlorophenyl)-6-(4-fluorophenyl)quinazolin-4-yl]-2,4-difluorophenylamine] |
| 70 nM | Fc1ccccc1Nc1nc(-c2ccc(Cl)cc2)nc2ccc(Br)cc12 [3g, 6-Bromo-2-(4-chlorophenyl)-N-(2-fluorophenyl)quinazolin-4-amine] |
